Source: PubChem BioAssay AID328 (DTP/NCI, 2004)
Values joined by “and” are separate entries in the source; they are usually repeats but may differ in a detail not shown here. Equal entries are not always repeated. Inconclusive results and toxic doses are left out.

Tested on: BDF1 mice, P388 leukemia ip, median survival T/C
Test: NCI In Vivo Anticancer Drug Screen. Data for tumor model P388 Leukemia (intraperitoneal) in B6D2F1 (BDF1) mice
Conditions: endpoint: median survival time, higher = longer survival
Procedure, shortened: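 Each value expresses how treatment altered survival: treated-mouse outcome over vehicle-mouse outcome, both groups bearing the transplanted tumour.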

[1] = dose: 100.0 mg/kg/injection, schedule: Q04DX003 (ip), vehicle: Klucel (hydroxypropylcellulose) (HPC)
[2] = dose: 200.0 mg/kg/injection, schedule: Q04DX003 (ip), vehicle: Klucel (hydroxypropylcellulose) (HPC)
[3] = dose: 400.0 mg/kg/injection, schedule: Q04DX003 (ip), vehicle: Klucel (hydroxypropylcellulose) (HPC)
[4] = dose: 50.0 mg/kg/injection, schedule: Q01DX009 (ip), vehicle: saline with Tween-80
[5] = dose: 100.0 mg/kg/injection, schedule: Q01DX009 (ip), vehicle: saline with Tween-80
[6] = dose: 200.0 mg/kg/injection, schedule: Q01DX009 (ip), vehicle: saline with Tween-80
[7] = dose: 400.0 mg/kg/injection, schedule: Q01DX009 (ip), vehicle: saline with Tween-80
[8] = dose: 12.5 mg/kg/injection, schedule: Q01DX009 (ip), vehicle: water
[9] = dose: 25.0 mg/kg/injection, schedule: Q01DX009 (ip), vehicle: water
[10] = dose: 25.0 mg/kg/injection, schedule: Q04DX003 (ip), vehicle: water
[11] = dose: 50.0 mg/kg/injection, schedule: Q01DX009 (ip), vehicle: water
[12] = dose: 50.0 mg/kg/injection, schedule: Q04DX003 (ip), vehicle: water
[13] = dose: 100.0 mg/kg/injection, schedule: Q01DX009 (ip), vehicle: water
[14] = dose: 100.0 mg/kg/injection, schedule: Q04DX003 (ip), vehicle: water
[15] = dose: 200.0 mg/kg/injection, schedule: Q04DX003 (ip), vehicle: water

What does the source list for `COc1cc([C@@H]2c3cc4c(cc3[C@H](O)[C@H]3COC(=O)[C@H]23)OCO4)cc(OC)c1OC`?
T/C (dose: 1.0 mg/kg/injection, schedule: Q01DX010 (ip), vehicle: steriod suspending solution): 118 % of control; T/C (dose: 2.0 mg/kg/injection, schedule: Q01DX010 (ip), vehicle: carboxymethylcellulose (CMC)): 171 % of control; T/C (dose: 2.25 mg/kg/injection, schedule: Q01DX001 (ip), vehicle: other): 115 % of control; T/C (dose: 2.25 mg/kg/injection, schedule: Q01DX010 (ip), vehicle: other): 150 % of control; T/C (dose: 4.0 mg/kg/injection, schedule: Q01DX010 (ip), vehicle: carboxymethylcellulose (CMC)): 95 % of control; T/C (dose: 4.5 mg/kg/injection, schedule: Q01DX010 (ip), vehicle: other): 154 % of control; T/C (dose: 9.0 mg/kg/injection, schedule: Q01DX001 (ip), vehicle: other): 115 % of control; T/C (dose: 9.0 mg/kg/injection, schedule: Q01DX010 (ip), vehicle: other): 95 % of control

`CC(=O)CC(=O)c1ccccc1` was tested. Which T/C (dose: 100.0 mg/kg/injection, schedule: Q01DX001 (ip), vehicle: Klucel (hydroxypropylcellulose) (HPC)) did it give?
Its T/C is 112 % of control.

And the T/C [1]?
Its T/C is 108 % of control.

And the T/C (dose: 200.0 mg/kg/injection, schedule: Q01DX001 (ip), vehicle: Klucel (hydroxypropylcellulose) (HPC))?
The T/C was 95 % of control.

What about the T/C [2] of the same compound?
The T/C was 108 % of control.

What about the T/C (dose: 400.0 mg/kg/injection, schedule: Q01DX001 (ip), vehicle: Klucel (hydroxypropylcellulose) (HPC)) of the same compound?
Its T/C is 91 % of control.

And the T/C [3]?
Its T/C is 112 % of control.

Which T/C [4] does the source give for `CCOC(=O)C1(CCOC)CCCCC1=O` (stereo unspecified) here?
The T/C was 106 % of control.

And the T/C [5]?
Its T/C is 117 % of control.

And the T/C [6]?
The T/C was 115 % of control.

What does the source list for `O=C(O)COc1ccc(-c2ccc(Br)cc2)cc1`?
T/C [4]: 90 % of control; T/C [6]: 100 % of control; T/C [7]: 101 % of control

What does the source list for `Nc1cc(OCc2ccccc2)cc(OCc2ccccc2)c1`?
T/C (dose: 6.25 mg/kg/injection, schedule: Q01DX009 (ip), vehicle: water): 96 % of control; T/C [8]: 96 % of control and 101 % of control; T/C (dose: 12.5 mg/kg/injection, schedule: Q04DX003 (ip), vehicle: water): 105 % of control; T/C [9]: 99 % of control and 105 % of control; T/C [10]: 99 % of control; T/C [11]: 97 % of control and 98 % of control; T/C [12]: 99 % of control; T/C [13]: 92 % of control and 100 % of control; T/C [14]: 106 % of control and 107 % of control and 108 % of control; T/C [15]: 95 % of control and 96 % of control

For `COc1cc(C(=O)NCC2(C)OC3(OC(=O)C2O)C(=O)N/C(=C(\C=O)C(C)=O)OC3C(O)C2CN2C(C)=O)c2cccc(C)c2c1` (stereo unspecified), which T/C (dose: 0.05 mg/kg/injection, schedule: Q01DX010 (ip), vehicle: alkali diluted with saline) is on record?
Its T/C is 245 % of control.

And the T/C (dose: 0.1 mg/kg/injection, schedule: Q01DX010 (ip), vehicle: alkali diluted with saline)?
The T/C was 300 % of control.

What about the T/C (dose: 12.5 micrograms/kg/injection, schedule: Q01DX010 (ip), vehicle: other) of the same compound?
Its T/C is 180 % of control.

What about the T/C (dose: 25.0 micrograms/kg/injection, schedule: Q01DX010 (ip), vehicle: other) of the same compound?
The T/C was 155 % of control.

And the T/C (dose: 50.0 micrograms/kg/injection, schedule: Q01DX010 (ip), vehicle: other)?
Its T/C is 195 % of control.

How did the T/C (dose: 2.5 mg/kg/injection, schedule: Q01DX010 (ip), vehicle: water) turn out when `COc1cc2c(c(OC)c1OC)-c1ccc(O)cc1[C@@H](NC(C)=O)CC2` was run?
The T/C was 86 % of control.

And the T/C (dose: 5.0 mg/kg/injection, schedule: Q01DX010 (ip), vehicle: water)?
The T/C was 118 % of control.

What about the T/C (dose: 10.0 mg/kg/injection, schedule: Q01DX010 (ip), vehicle: water) of the same compound?
The T/C was 109 % of control.

`NS(=O)(=O)c1cc([N+](=O)[O-])ccc1Cl` was tested. Which T/C [1] did it give?
Its T/C is 100 % of control.

And the T/C [2]?
The T/C was 108 % of control.

`CCC(CCC(C)C1CCC2C3CC=C4CC(O)CCC4(C)C3CCC12C)C(C)C` (stereo unspecified) (tested in a mixture with another compound) was tested. Which T/C (dose: 12.5 mg/kg/injection, schedule: Q#A X020 (ip), vehicle: water) did it give?
The T/C was 90 % of control.

For `Nc1n[nH]c([N+](=O)[O-])n1`, which T/C (dose: 100.0 mg/kg/injection, schedule: Q01DX001 (ip), vehicle: saline sonified) is on record?
Its T/C is 108 % of control.

And the T/C (dose: 200.0 mg/kg/injection, schedule: Q01DX001 (ip), vehicle: saline sonified)?
Its T/C is 100 % of control.

And the T/C (dose: 400.0 mg/kg/injection, schedule: Q01DX001 (ip), vehicle: saline sonified)?
The T/C was 100 % of control.

With `O=C1CC(c2c[nH]c3nccnc23)NN1` (stereo unspecified) as the compound, how does the T/C [8] read?
The T/C was 100 % of control.

What about the T/C [9] of the same compound?
Its T/C is 101 % of control.

What about the T/C [10] of the same compound?
Its T/C is 104 % of control.

And the T/C [11]?
The T/C was 110 % of control.

And the T/C [12]?
The T/C was 100 % of control.

What about the T/C [13] of the same compound?
The T/C was 100 % of control.

What about the T/C [14] of the same compound?
Its T/C is 95 % of control.

And the T/C (dose: 200.0 mg/kg/injection, schedule: Q01DX009 (ip), vehicle: water)?
The T/C was 103 % of control.

And the T/C [15]?
Its T/C is 104 % of control.

And the T/C (dose: 300.0 mg/kg/injection, schedule: Q01DX009 (ip), vehicle: water)?
The T/C was 103 % of control.

What about the T/C (dose: 400.0 mg/kg/injection, schedule: Q04DX003 (ip), vehicle: water) of the same compound?
The T/C was 100 % of control.

How did the T/C (dose: 100.0 mg/kg/injection, schedule: Q01DX009 (ip), vehicle: Klucel (hydroxypropylcellulose) (HPC)) turn out when `OCC1C(CO)C2(Cl)C(Cl)=C(Cl)C1(Cl)C2(Cl)Cl` (stereo unspecified) was run?
The T/C was 100 % of control.

And the T/C [1]?
Its T/C is 100 % of control.

And the T/C (dose: 200.0 mg/kg/injection, schedule: Q01DX009 (ip), vehicle: Klucel (hydroxypropylcellulose) (HPC))?
The T/C was 118 % of control.

What about the T/C [2] of the same compound?
The T/C was 95 % of control.

What about the T/C (dose: 400.0 mg/kg/injection, schedule: Q01DX009 (ip), vehicle: Klucel (hydroxypropylcellulose) (HPC)) of the same compound?
The T/C was 100 % of control.

And the T/C [3]?
The T/C was 109 % of control.

Which T/C (dose: 100.0 mg/kg/injection, schedule: Q01DX009 (ip), vehicle: saline) does the source give for `O=C(NO)c1ccncc1` here?
Its T/C is 120 % of control.

What about the T/C (dose: 100.0 mg/kg/injection, schedule: Q01DX010 (ip), vehicle: water) of the same compound?
The T/C was 90 % of control.

What about the T/C (dose: 132.0 mg/kg/injection, schedule: Q01DX009 (ip), vehicle: saline) of the same compound?
The T/C was 118 % of control.

And the T/C (dose: 200.0 mg/kg/injection, schedule: Q01DX006 (ip), vehicle: water)?
The T/C was 90 % of control.

And the T/C (dose: 200.0 mg/kg/injection, schedule: Q01DX009 (ip), vehicle: saline)?
The T/C was 118 % of control and 120 % of control.

And the T/C (dose: 200.0 mg/kg/injection, schedule: Q01DX010 (ip), vehicle: water)?
The T/C was 118 % of control.

What about the T/C (dose: 200.0 mg/kg/injection, schedule: Q#A X020 (ip), vehicle: water) of the same compound?
Its T/C is 100 % of control.

What about the T/C (dose: 222.0 mg/kg/injection, schedule: Q01DX010 (ip), vehicle: water) of the same compound?
Its T/C is 113 % of control.

What about the T/C (dose: 222.0 mg/kg/injection, schedule: Q02DX005 (ip), vehicle: water) of the same compound?
Its T/C is 113 % of control.

And the T/C (dose: 300.0 mg/kg/injection, schedule: Q01DX009 (ip), vehicle: saline)?
Its T/C is 118 % of control.

And the T/C (dose: 300.0 mg/kg/injection, schedule: Q#A X020 (ip), vehicle: water)?
Its T/C is 118 % of control.

And the T/C (dose: 335.0 mg/kg/injection, schedule: Q02DX005 (ip), vehicle: water)?
The T/C was 109 % of control.

What about the T/C (dose: 400.0 mg/kg/injection, schedule: Q01DX006 (ip), vehicle: water) of the same compound?
The T/C was 90 % of control.

And the T/C (dose: 400.0 mg/kg/injection, schedule: Q01DX010 (ip), vehicle: water)?
Its T/C is 150 % of control.

And the T/C (dose: 500.0 mg/kg/injection, schedule: Q01DX001 (ip), vehicle: water)?
The T/C was 109 % of control.

And the T/C (dose: 600.0 mg/kg/injection, schedule: Q01DX006 (ip), vehicle: water)?
The T/C was 100 % of control.

What about the T/C (dose: 600.0 mg/kg/injection, schedule: Q01DX010 (ip), vehicle: water) of the same compound?
Its T/C is 154 % of control.

And the T/C (dose: 750.0 mg/kg/injection, schedule: Q01DX010 (ip), vehicle: water)?
The T/C was 154 % of control.

And the T/C (dose: 750.0 mg/kg/injection, schedule: Q02DX005 (ip), vehicle: water)?
Its T/C is 163 % of control.

And the T/C (dose: 800.0 mg/kg/injection, schedule: Q01DX006 (ip), vehicle: water)?
The T/C was 90 % of control.

What about the T/C (dose: 1000.0 mg/kg/injection, schedule: Q01DX001 (ip), vehicle: water) of the same compound?
The T/C was 113 % of control.

And the T/C (dose: 1500.0 mg/kg/injection, schedule: Q01DX001 (ip), vehicle: water)?
The T/C was 100 % of control.

How did the T/C [5] turn out when `COc1cccc(NC(=O)CCC(=O)O)c1` was run?
The T/C was 104 % of control.

And the T/C [6]?
The T/C was 100 % of control.

What about the T/C [7] of the same compound?
The T/C was 100 % of control.
